For the assay, the target named is GLP-1 Receptor (Homo sapiens, UniProt P43220). The assay is described as follows: GLP-1R agonist cAMP stimulation assay (HEK293/GLP1R/CRE-LUC cells, HTRF cAMP dynamic 2 kit). The assay is classed as cell-based. Particulars: HEK293/CRE-Luc cell line stably expressing the GLP-1 Receptor; 30 min incubation at 37° C. On the procedure: Activation of GLP-1 receptor is known to stimulate cyclic AMP (cAMP) production in cells which indicates primary coupling to the Gas subunit of the G protein heterotrimeric complex.
To optimize functional activity directed toward Gas coupling, a HEK293/CRE-Luc cell line developed by HDB stably expressing the GLP-1 Receptor was used. 200× concentration of compound working solutions were prepared (Agilent Technologies Bravo) with 1/2 log serial dilution in 384-well Echo LDV plate (Labcyte, Cat #LP-0200). 50 nL/well 200× concentration of compound working solutions were moved to 384-well white low volume plate (Greiner, Cat #784075) using Labcyte ECHO550. 1×10^5 cells/mL HEK293/GLP1R/CRE-LUC (HD Biosciences) cell suspensions prepared with assay buffer [DPBS containing 0.5 mM IBMX (Sigma, Cat #15879) and 0.10% BSA (GENVIEW, Cat #FA016-100g)], 10 μL cell suspensions were added to each well of previous generated assay plate which already contains 50 nL compound at 200× concentration using ThermoFisher Multidrop Combi (1000 cells/well). Seal the plate and incubate at 37° C. with 5% CO2 for 30 min.
After incubation the cAMP assay signal was generated using cAMP dynamic 2 Kit (Cisbio). 5 μL cAMP-d2 working solution was added to each well, followed with 5 μL Anti-cAMP antibody-cryptate working solution added to each well using ThermoFisher Multidrop Combi. Incubate at room temperature for 1 hour protected from light. Read the fluorescence at 665 and 615 nm with Reader PerkinElmer EnVision.

pEC50: −log10 of the molar value.

Sequence of GLP-1 Receptor (P43220 24-463): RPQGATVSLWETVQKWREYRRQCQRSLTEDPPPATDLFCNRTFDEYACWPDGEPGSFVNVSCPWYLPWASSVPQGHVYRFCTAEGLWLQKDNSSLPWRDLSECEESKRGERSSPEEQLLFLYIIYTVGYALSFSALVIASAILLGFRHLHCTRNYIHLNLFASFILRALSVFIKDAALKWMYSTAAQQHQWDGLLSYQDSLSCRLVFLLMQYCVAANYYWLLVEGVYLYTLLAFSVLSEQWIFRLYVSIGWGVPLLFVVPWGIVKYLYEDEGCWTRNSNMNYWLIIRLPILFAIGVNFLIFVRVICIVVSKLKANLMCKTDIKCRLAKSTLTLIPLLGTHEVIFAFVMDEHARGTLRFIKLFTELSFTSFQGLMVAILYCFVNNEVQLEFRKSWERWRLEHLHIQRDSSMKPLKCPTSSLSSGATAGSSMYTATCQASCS

Usually pEC50 stands for −log10 of the EC50, conventionally taken in molar units. Read a low pEC50 as a high EC50. `O=c1[nH]c(-c2cnc3c(c2)nc(CN2CCc4cc(C(F)(F)F)c(OCc5ccc(Cl)cc5F)nc4C2)n3C[C@@H]2CCO2)no1` [Compound 29, 3-[2-({2-[(4-chloro-2-fluorophenyl)methoxy]-3-(trifluoromethyl)-5,6,7,8-tetrahydro-1,7-naphthyridin-7-yl}methyl)-3-{[(2S)-oxetan-2-yl]methyl}-3H-imidazo[4,5-b]pyridin-6-yl]-4,5-dihydro-1,2,4-oxadiazol-5-one] gave a pEC50 of more than 9.00.

In turn, `O=c1[nH]c(-c2cnc3c(c2)nc(CN2CCc4cc(C(F)(F)F)c(OCc5c(F)cc(Cl)cc5F)nc4C2)n3C[C@@H]2CCO2)no1` [Compound 30, 3-[2-({2-[(4-chloro-2,6-difluorophenyl)methoxy]-3-(trifluoromethyl)-5,6,7,8-tetrahydro-1,7-naphthyridin-7-yl}methyl)-3-{[(2S)-oxetan-2-yl]methyl}-3H-imidazo[4,5-b]pyridin-6-yl]-4,5-dihydro-1,2,4-oxadiazol-5-one] showed a negative-log EC50 (pEC50) of more than 9.00.

In turn, `O=c1[nH]c(-c2cc3nc(CN4CCc5cc(C(F)(F)F)c(OCc6ccc(Cl)cc6)nc5C4)n(C[C@@H]4CCO4)c3cn2)no1` [Compound 31, 3-[2-({2-[(4-chlorophenyl)methoxy]-3-(trifluoromethyl)-5,6,7,8-tetrahydro-1,7-naphthyridin-7-yl}methyl)-3-{[(2S)-oxetan-2-yl]methyl}-3H-imidazo[4,5-c]pyridin-6-yl]-4,5-dihydro-1,2,4-oxadiazol-5-one] gave a pEC50 of more than 9.00.

On to `O=c1[nH]c(-c2cc3nc(CN4CCc5cc(C(F)(F)F)c(OCc6c(F)cc(Cl)cc6F)nc5C4)n(C[C@@H]4CCO4)c3cn2)no1` [Compound 32, 3-[2-({2-[(4-chloro-2,6-difluorophenyl)methoxy]-3-(trifluoromethyl)-5,6,7,8-tetrahydro-1,7-naphthyridin-7-yl}methyl)-3-{1[(2S)-oxetan-2-yl]methyl}-3H-imidazo[4,5-c]pyridin-6-yl]-4,5-dihydro-1,2,4-oxadiazol-5-one], for which the pEC50 is more than 9.00.

The molecule `Cc1ccc(COc2nc3c(cc2C(F)(F)F)CCN(Cc2nc4cc(-c5noc(=O)[nH]5)ncc4n2C[C@@H]2CCO2)C3)c(Cl)c1` [Compound 33, 3-[2-({2-[(2-chloro-4-methylphenyl)methoxy]-3-(trifluoromethyl)-5,6,7,8-tetrahydro-1,7-naphthyridin-7-yl}methyl)-3-{1[(2S)-oxetan-2-yl]methyl}-3H-imidazo[4,5-c]pyridin-6-yl]-4,5-dihydro-1,2,4-oxadiazol-5-one] showed a pEC50 of more than 9.00.

In turn, `Cc1cc2c(nc1OCc1c(F)cc(Cl)cc1F)CN(Cc1nc3cc(-c4noc(=O)[nH]4)ncc3n1C[C@@H]1CCO1)CC2` [Compound 34, 3-[2-({2-[(4-chloro-2,6-difluorophenyl)methoxy]-3-methyl-5,6,7,8-tetrahydro-1,7-naphthyridin-7-yl}methyl)-3-{[(2S)-oxetan-2-yl]methyl}-3H-imidazo[4,5-c]pyridin-6-yl]-4,5-dihydro-1,2,4-oxadiazol-5-one] had a pEC50 of more than 9.00.

`Cc1cc2c(nc1NCc1c(F)cc(Cl)cc1F)CN(Cc1nc3cc(-c4noc(=O)[nH]4)ncc3n1C[C@@H]1CCO1)CC2` [Compound 35, 3-{2-[(2-{[(4-chloro-2,6-difluorophenyl)methyl]amino}-3-methyl-5,6,7,8-tetrahydro-1,7-naphthyridin-7-yl)methyl]-3-{[(2S)-oxetan-2-yl]methyl}-3H-imidazo[4,5-c]pyridin-6-yl}-4,5-dihydro-1,2,4-oxadiazol-5-one] showed a pEC50 of more than 9.00.

With `O=c1[nH]c(-c2ccc3c(c2)nc(CN2CCc4cc(C(F)(F)F)c(OCc5ccc(Cl)cc5F)nc4C2)n3C[C@@H]2CCO2)no1` [Compound 36, 3-[2-({2-[(4-chloro-2-fluorophenyl)methoxy]-3-(trifluoromethyl)-5,6,7,8-tetrahydro-1,7-naphthyridin-7-yl}methyl)-1-{1[(2S)-oxetan-2-yl]methyl}-1H-1,3-benzodiazol-5-yl]-4,5-dihydro-1,2,4-oxadiazol-5-one], the pEC50 is more than 9.00.

The record behind these values is patent US20250206757A1 (GASHERBRUM BIO, INC., priority 2022, published 2025).
